The NIST ThermoML archive (doi:10.1016/j.fluid.2007.08.010)

Details: Liquid, Falling or rolling sphere viscometry

c1ccccc1 [benzene]
viscosity [mPa·s]
Details	690 kPa	5000 kPa	10000 kPa	20000 kPa	30000 kPa	40000 kPa	50000 kPa	60000 kPa
313.2 K	0.479	0.5	0.524	0.574	0.625	0.675	0.725	0.774
333.2 K	0.387	0.404	0.424	0.466	0.509	0.553	0.597	0.641
353.2 K	0.317	0.331	0.347	0.38	0.415	0.451	0.489	0.526
373.2 K	0.269	0.279	0.291	0.316	0.344	0.372	0.402	0.434
393.2 K	0.239	0.246	0.255	0.273	0.294	0.315	0.339	0.364

CCCCCCCCCCCCCC [tetradecane]
viscosity [mPa·s]
Details	690 kPa	5000 kPa	10000 kPa	20000 kPa	30000 kPa	40000 kPa	50000 kPa	60000 kPa
313.2 K	1.653	1.738	1.831	2.025	2.241	2.483	2.767	3.093
333.2 K	1.218	1.283	1.345	1.473	1.607	1.74	1.886	2.043
353.2 K	0.896	0.957	1.017	1.128	1.229	1.325	1.423	1.518
373.2 K	0.66	0.708	0.757	0.852	0.943	1.031	1.117	1.202
393.2 K	0.527	0.568	0.609	0.687	0.767	0.839	0.908	0.976
